In PubChem BioAssay AID256 (DTP/NCI, 2004) one finds T/C data, which are given here for 22 compounds.

Where “and” joins values, the source holds several entries; their conditions need not be identical. Equal values may be shown once. Inconclusive results and toxic doses are left out.

This test has as its system CD2F1 mice, L1210 leukemia ip, survival T/C. Briefly: NCI In Vivo Anticancer Drug Screen. Data for tumor model L1210 Leukemia (intraperitoneal) in CD2F1 (CDF1) mice. The note with it: higher = longer survival. The essentials:
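Each value reflects a quotient of treated over vehicle control outcomes in mice with a transplanted tumor.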

Setting [1] is: endpoint: mean survival time, dose: 6.25 mg/kg/injection, schedule: Q01DX009 (ip), vehicle: saline with Tween-80.
[2] abbreviates: endpoint: mean survival time, dose: 12.5 mg/kg/injection, schedule: Q01DX009 (ip), vehicle: saline with Tween-80.
[3] abbreviates: endpoint: mean survival time, dose: 25.0 mg/kg/injection, schedule: Q01DX009 (ip), vehicle: saline with Tween-80.
The mark [4] stands for this setting: endpoint: mean survival time, dose: 50.0 mg/kg/injection, schedule: Q01DX009 (ip), vehicle: saline with Tween-80.
Setting [5] is: endpoint: mean survival time, dose: 100.0 mg/kg/injection, schedule: Q01DX009 (ip), vehicle: saline with Tween-80.
The mark [6] stands for this setting: endpoint: mean survival time, dose: 100.0 mg/kg/injection, schedule: Q01DX001 (ip), vehicle: saline.
The mark [7] stands for this setting: endpoint: mean survival time, dose: 200.0 mg/kg/injection, schedule: Q01DX001 (ip), vehicle: saline.
The mark [8] stands for this setting: endpoint: mean survival time, dose: 400.0 mg/kg/injection, schedule: Q01DX001 (ip), vehicle: saline.
The mark [9] stands for this setting: endpoint: mean survival time, dose: 100.0 mg/kg/injection, schedule: Q01DX001 (ip), vehicle: saline with Tween-80.
Where [10] appears, read: endpoint: mean survival time, dose: 200.0 mg/kg/injection, schedule: Q01DX001 (ip), vehicle: saline with Tween-80.
Where [11] appears, read: endpoint: mean survival time, dose: 400.0 mg/kg/injection, schedule: Q01DX001 (ip), vehicle: saline with Tween-80.
[12] abbreviates: endpoint: mean survival time, dose: 200.0 mg/kg/injection, schedule: Q04DX003 (ip), vehicle: saline with Tween-80.
Setting [13] is: endpoint: mean survival time, dose: 200.0 mg/kg/injection, schedule: Q01DX009 (ip), vehicle: saline with Tween-80.
[14] abbreviates: endpoint: mean survival time, dose: 400.0 mg/kg/injection, schedule: Q01DX009 (ip), vehicle: saline with Tween-80.
The mark [15] stands for this setting: endpoint: mean survival time, dose: 100.0 mg/kg/injection, schedule: Q04DX003 (ip), vehicle: saline with Tween-80.

In the case of `c1ccc(C2CO2)cc1` (centres undefined), the T/C reads like this: (endpoint: mean survival time, dose: 150.0 mg/kg/injection, schedule: Q04DX003 (ip), vehicle: Klucel (hydroxypropylcellulose) (HPC)) 102 % of control; (endpoint: mean survival time, dose: 225.0 mg/kg/injection, schedule: Q04DX003 (ip), vehicle: Klucel (hydroxypropylcellulose) (HPC)) 102 % of control.

Turning to `C=C(C)C12CC(C)C34OC(CCCCCCCCCCC)(OC1C3C1OC1(CO)C(O)C1(O)C(=O)C(C)=CC14C)O2` (centres undefined), the T/C by setting is: (endpoint: mean survival time, dose: 0.05 mg/kg/injection, schedule: Q01DX009 (ip), vehicle: other) 94 % of control; (endpoint: mean survival time, dose: 0.1 mg/kg/injection, schedule: Q01DX009 (ip), vehicle: other) 89 % of control; (endpoint: mean survival time, dose: 0.2 mg/kg/injection, schedule: Q01DX009 (ip), vehicle: other) 89 % of control; (endpoint: mean survival time, dose: 0.4 mg/kg/injection, schedule: Q01DX009 (ip), vehicle: other) 89 % of control.

As to `O=C1CN(Cc2ccc3c(c2)OCO3)NO1`, the T/C is 98 % of control and 101 % of control under setting [1]; 98 % of control under setting [2]; 102 % of control and 109 % of control under setting [3]; 113 % of control under setting [4]; 120 % of control and 104 % of control under setting [5].

Turning to `Cc1cccc(Cl)c1OCC1CO1` (centres undefined), the T/C was 110 % of control under setting [6], 110 % of control under setting [7] and 110 % of control under setting [8].

For the compound `NC(=O)c1cc2c(N)[nH]nc2nc1N`, the T/C is 97 % of control under setting [1]; 94 % of control (endpoint: mean survival time, dose: 6.25 mg/kg/injection, schedule: Q04DX003 (ip), vehicle: saline with Tween-80); 103 % of control under setting [2]; 97 % of control (endpoint: mean survival time, dose: 12.5 mg/kg/injection, schedule: Q04DX003 (ip), vehicle: saline with Tween-80); 92 % of control under setting [3]; 92 % of control (endpoint: mean survival time, dose: 25.0 mg/kg/injection, schedule: Q04DX003 (ip), vehicle: saline with Tween-80).

As to `O=C(N/N=C/c1ccc(Cl)c(Cl)c1)c1ccccc1`, the T/C was 94 % of control (endpoint: mean survival time, dose: 100.0 mg/kg/injection, schedule: Q01DX009 (ip), vehicle: Klucel (hydroxypropylcellulose) (HPC)); 96 % of control (endpoint: mean survival time, dose: 100.0 mg/kg/injection, schedule: Q04DX003 (ip), vehicle: Klucel (hydroxypropylcellulose) (HPC)); 90 % of control (endpoint: mean survival time, dose: 200.0 mg/kg/injection, schedule: Q01DX009 (ip), vehicle: Klucel (hydroxypropylcellulose) (HPC)); 88 % of control (endpoint: mean survival time, dose: 200.0 mg/kg/injection, schedule: Q04DX003 (ip), vehicle: Klucel (hydroxypropylcellulose) (HPC)); 89 % of control (endpoint: mean survival time, dose: 400.0 mg/kg/injection, schedule: Q01DX009 (ip), vehicle: Klucel (hydroxypropylcellulose) (HPC)); 97 % of control (endpoint: mean survival time, dose: 400.0 mg/kg/injection, schedule: Q04DX003 (ip), vehicle: Klucel (hydroxypropylcellulose) (HPC)).

Take `C1=C(c2ccccc2)NCC1c1ccccc1` (centres undefined): the T/C under setting [9] is 94 % of control, the T/C under setting [10] was 86 % of control and the T/C under setting [11] is 89 % of control.

On to `O=c1cc2c(=O)oc3cc(O)c(O)oc3c2c(O)c1O`, for which the T/C runs as follows: under setting [6], 101 % of control; under setting [7], 98 % of control; under setting [8], 98 % of control.

On to `O=c1[nH]ncc2c(C3OC(CO)C(O)C3O)cnn12` (centres undefined), for which the T/C is, setting by setting: (endpoint: median survival time, dose: 4.75 mg/kg/injection, schedule: Q01DX005 (ip), vehicle: distilled water + Tween-80) 109 % of control; (endpoint: median survival time, dose: 9.5 mg/kg/injection, schedule: Q01DX005 (ip), vehicle: distilled water + Tween-80) 100 % of control; (endpoint: median survival time, dose: 19.0 mg/kg/injection, schedule: Q01DX005 (ip), vehicle: distilled water + Tween-80) 106 % of control; (endpoint: median survival time, dose: 38.0 mg/kg/injection, schedule: Q01DX005 (ip), vehicle: distilled water + Tween-80) 102 % of control; (endpoint: median survival time, dose: 76.0 mg/kg/injection, schedule: Q01DX005 (ip), vehicle: distilled water + Tween-80) 98 % of control.

Regarding `NCCN1c2ccccc2Sc2ccccc21`, the T/C was 105 % of control (endpoint: mean survival time, dose: 12.5 mg/kg/injection, schedule: Q01DX009 (ip), vehicle: other); 98 % of control (endpoint: mean survival time, dose: 25.0 mg/kg/injection, schedule: Q01DX009 (ip), vehicle: other); 113 % of control (endpoint: mean survival time, dose: 50.0 mg/kg/injection, schedule: Q01DX009 (ip), vehicle: other).

With `COc1ncn(C2CC(OC(=O)c3ccc(C)cc3)C(COC(=O)c3ccc(C)cc3)O2)c(=O)n1` (centres undefined), the T/C under setting [12] was 86 % of control.

In the case of `O=C(Nc1nncs1)c1cccs1`, the T/C is, setting by setting: under setting [2], 95 % of control and 104 % of control; under setting [3], 93 % of control and 103 % of control; under setting [4], 93 % of control and 94 % of control; under setting [5], 92 % of control and 100 % of control; under setting [13], 118 % of control; under setting [14], 172 % of control.

Turning to `COc1cc([N+](=O)[O-])ccc1NC(=O)Oc1ccccc1F`, the T/C is 109 % of control under setting [5], 109 % of control under setting [13] and 108 % of control under setting [14].

Consider `CCOC(=O)c1sc(C(=O)OCC)c(-c2ccccc2)c1-c1ccccc1`, for which the T/C under setting [9] is 108 % of control, the T/C under setting [10] was 93 % of control and the T/C under setting [11] is 96 % of control.

On to `O=C(O)/C(=C(/c1ccccc1)c1ccc(Cl)cc1)c1ccccc1`, for which the T/C was 98 % of control under setting [15]; 96 % of control under setting [12]; 98 % of control (endpoint: mean survival time, dose: 400.0 mg/kg/injection, schedule: Q04DX003 (ip), vehicle: saline with Tween-80).

Take `CC(=O)N1CCC2(CC1)SSC1(CCN(C(C)=O)CC1)S2`: the T/C was 102 % of control (endpoint: mean survival time, dose: 5.0 mg/kg/injection, schedule: Q01DX009 (ip), vehicle: saline with Tween-80); 92 % of control (endpoint: mean survival time, dose: 5.0 mg/kg/injection, schedule: Q04DX003 (ip), vehicle: saline with Tween-80); 103 % of control (endpoint: mean survival time, dose: 10.0 mg/kg/injection, schedule: Q01DX009 (ip), vehicle: saline with Tween-80); 91 % of control (endpoint: mean survival time, dose: 10.0 mg/kg/injection, schedule: Q04DX003 (ip), vehicle: saline with Tween-80); 100 % of control (endpoint: mean survival time, dose: 20.0 mg/kg/injection, schedule: Q01DX009 (ip), vehicle: saline with Tween-80); 96 % of control (endpoint: mean survival time, dose: 20.0 mg/kg/injection, schedule: Q04DX003 (ip), vehicle: saline with Tween-80).

As for `CN=C(N)c1ccc(N=C(N)c2ccc(N=C(N)c3ccc(NC(=O)c4ccc(C(=O)Nc5ccc(C(N)=Nc6ccc(C(N)=Nc7ccc(C(N)=NC)cc7)cc6)cc5)cc4)cc3)cc2)cc1`, under “endpoint: mean survival time, dose: 62.5 mg/kg/injection, schedule: Q01DX Z (ip), vehicle: water”, the T/C is 111 % of control.

As for `CC(C)C(=O)OC1(C(C)c2ccccc2)C(=O)NC(=O)NC1=O` (centres undefined), the T/C under setting [1] is 92 % of control; the T/C under setting [2] is 97 % of control; the T/C (endpoint: mean survival time, dose: 25.0 mg/kg/injection, schedule: Q04DX002 (ip), vehicle: saline with Tween-80) is 91 % of control.

As to `[Cl][Pt+2][Cl].[NH-]CCC([NH-])C(=O)O` (centres undefined), the T/C (endpoint: mean survival time, dose: 12.5 mg/kg/injection, schedule: Q04DX003 (ip), vehicle: saline) is 107 % of control; the T/C (endpoint: mean survival time, dose: 25.0 mg/kg/injection, schedule: Q04DX003 (ip), vehicle: saline) was 121 % of control; the T/C (endpoint: mean survival time, dose: 50.0 mg/kg/injection, schedule: Q04DX003 (ip), vehicle: saline) was 115 % of control.

As to `CS(=O)(=O)c1ccccn1`, the T/C is 100 % of control (endpoint: mean survival time, dose: 100.0 mg/kg/injection, schedule: Q01DX001 (ip), vehicle: saline sonified); 97 % of control (endpoint: mean survival time, dose: 200.0 mg/kg/injection, schedule: Q01DX001 (ip), vehicle: saline sonified); 100 % of control (endpoint: mean survival time, dose: 400.0 mg/kg/injection, schedule: Q01DX001 (ip), vehicle: saline sonified).

Consider `CN(C)c1n[nH]c(N)n1`, for which the T/C (endpoint: mean survival time, dose: 76.0 mg/kg/injection, schedule: Q04DX003 (ip), vehicle: saline) was 97 % of control; the T/C (endpoint: mean survival time, dose: 115.0 mg/kg/injection, schedule: Q04DX003 (ip), vehicle: saline) was 101 % of control; the T/C (endpoint: mean survival time, dose: 174.0 mg/kg/injection, schedule: Q04DX003 (ip), vehicle: saline) was 104 % of control; the T/C (endpoint: mean survival time, dose: 264.0 mg/kg/injection, schedule: Q04DX003 (ip), vehicle: saline) is 103 % of control; the T/C (endpoint: mean survival time, dose: 400.0 mg/kg/injection, schedule: Q04DX003 (ip), vehicle: saline) is 105 % of control.

In the case of `COc1ccc(OC)c(C2N(Cc3ccccc3N(C)C)CCCN2Cc2ccccc2N(C)C)c1`, the T/C under setting [15] is 92 % of control and the T/C under setting [12] was 88 % of control.
